ChEMBL document CHEMBL1151371, “Plant Anticancer Agents. XI. 2,6-Dimethoxybenzoquinone as a Cytotoxic Constituent of Tibouchina pulchra” (1981)
≈ marks a conversion by molar mass, not a printed value.

Tested on: KB
Experiment: Cytotoxicity against human KB cells
Assay type: functional
Settings: read-out: ED50 (the source's name)

SMILES: COC1=CC(=O)C=C(OC)C1=O [2,6-DIMETHOXYQUINONE]
- EC50: 3.1 µg/mL (≈ 18.4 µM)
